Measured values reported in patent US20060079453A1, “Hla binding peptides and their uses” (priority 2002, published 2006).
Where two headings read alike, the source gives them in different places. No end group written: not given here.

What was measured:
Test in all cases: biochemical
Type in all cases: binding
HLA-DR DRB1*1302 (DR13) = HLA-DR DRB1*1302 (DR13) (Homo sapiens, UniProt P01903+P01911, A100E/A169T/K41T/L162R/M171V/P40S/Q125H/Q178H/Q39Y/Q99D/R42S/S66N/T262R/V115G/W38E/Y61H); settings: DRBI *1302
Chain of HLA-DR DRB1*1302 (DR13) (P01903 26-254 limits assumed, other chains not shown): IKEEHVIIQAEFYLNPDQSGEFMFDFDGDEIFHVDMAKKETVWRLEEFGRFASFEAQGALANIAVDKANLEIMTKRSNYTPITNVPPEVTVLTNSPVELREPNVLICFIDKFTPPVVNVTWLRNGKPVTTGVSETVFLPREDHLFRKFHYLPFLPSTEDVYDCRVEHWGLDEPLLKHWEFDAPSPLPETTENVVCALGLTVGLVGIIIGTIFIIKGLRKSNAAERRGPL

HLA-DR DRB1*1501 (DR15) = HLA-DR DRB1*1501 (DR15) (Homo sapiens, UniProt P01903+P01911); settings: DRBI *1501
HLA-DR DRB1*0901 (DR9) = HLA-DR DRB1*0901 (DR9) (Homo sapiens, UniProt P01903+P01911, A100R/A103E/D57H/D86V/F55Y/F60I/F76Y/I96F/K127E/L162R/M171V/P40D/Q125H/Q99R/R33Q/R42F/S133A/S66N/T210M/V115G/W38K/Y107V/Y59G/Y89S)
HLA-DR DRB1*0301 (DR3) = HLA-DR DRB1*0301 (DR3) (Homo sapiens, UniProt P01903+P01911, A100K/A102G/A103R/A169T/F55Y/I96L/K41T/L162R/M171V/P40S/Q125H/Q178H/Q39Y/R42S/S66N/T106N/T262R/W38E/Y61H)
Chain of HLA-DR DRB1*0301 (DR3) (P01903 26-254 limits assumed, other chains not shown): as above

HLA-DR DRB1*0401 (DR4) = HLA-DR DRB1*0401 (DR4) (Homo sapiens, UniProt P01903+P01911, A100K/A169T/F76Y/I96L/K127E/L162R/M171V/N62H/P40V/Q125Y/R42H/S133A/S149N/S66Y/V115G/V209L/W38E)
HLA-DR DRB1*1101 (DR11) = HLA-DR DRB1*1101 (DR11) (Homo sapiens, UniProt P01903+P01911, A100R/A169T/A87E/I96F/K41T/L162R/M171V/P40S/Q125H/Q178H/Q39Y/Q99D/R42S/S66Y/T262R/V115G/W38E); settings: DRB1 *1101
Chain of HLA-DR DRB1*1101 (DR11) (P01903 26-254 limits assumed, other chains not shown): as above

HLA-DR DRB5*0101 (DR51) = HLA-DR DRB5*0101 (DR51) (Homo sapiens, UniProt P01903+Q30154); settings: DRB5 *0101
HLA-DR DRB1*0101 (DR1) = HLA-DR DRB1*0101 (DR1) (Homo sapiens, UniProt P01903+P01911, A100R/D57E/F55L/F60I/F76Y/I96L/L162R/M171V/P40L/Q125E/R42F/V115G/Y59C)
HLA-DR DRB4*0101 (DR53) = HLA-DR DRB4*0101 (DR53) (Homo sapiens, UniProt P01903+P13762, G164S); settings: DRB4 *0101
HLA-DR DRB1*0701 (DR7) = HLA-DR DRB1*0701 (DR7) (Homo sapiens, UniProt P01903+P01911, A100R/A102G/A103Q/D57E/D86V/E43K/F76Y/K127E/L162R/M171V/P40G/Q125H/Q99D/R33Q/R42Y/R54Q/S133A/S66F/T210M/V115G/Y107V/Y59L/Y89S)
HLA-DR DRB1*0802 (DR8) = HLA-DR DRB1*0802 (DR8) (Homo sapiens, UniProt P01903+P01911, A100R/A103L/A169T/F76Y/H45Y/I96F/K41T/L162R/M171V/P40S/Q125H/Q178H/Q39Y/Q99D/R218S/R42G/S66Y/V115G/W38E)

Compound | IC50 (HLA-DR DRB1*1302 (DR13)) [nM] | IC50 (HLA-DR DRB1*1501 (DR15)) [nM] | IC50 (HLA-DR DRB1*0401 (DR4); DRB1 *0401) [nM] | IC50 (HLA-DR DRB5*0101 (DR51)) [nM] | IC50 (HLA-DR DRB1*0101 (DR1); DRB1 *0101) [nM] | IC50 (HLA-DR DRB4*0101 (DR53)) [nM] | IC50 (HLA-DR DRB1*0701 (DR7); DRB1 *0701) [nM] | also measured
CC(C)C[C@H](NC(=O)[C@H](CCC(N)=O)NC(=O)[C@H](CCC(N)=O)NC(=O)[C@@H](N)Cc1ccccc1)C(=O)N[C@@H](Cc1ccccc1)C(=O)N[C@@H](CC(C)C)C(=O)N[C@@H](CC(N)=O)C(=O)N[C@H](C(=O)N[C@@H](CC(C)C)C(=O)N[C@@H](CO)C(=O)N[C@@H](Cc1ccccc1)C(=O)N[C@H](C(=O)N[C@@H](CS)C(=O)N1CCC[C@H]1C(=O)N[C@@H](Cc1c[nH]c2ccccc12)C(=O)O)C(C)C)[C@@H](C)O | 9.3 | 24800 |  |  |  |  |  | IC50 (HLA-DR DRB1*0901 (DR9); DRB1 *0901): 2060 nM
RIVYRDGNPFAVCKV | 122 | 81 | 19 |  |  |  |  | IC50 (HLA-DR DRB1*0301 (DR3)): 144 nM; IC50 (HLA-DR DRB1*0901 (DR9); DRB1 *0901): 4960 nM
CC[C@H](C)[C@H](N)C(=O)N[C@@H](CCCNC(=N)N)C(=O)N[C@H](C(=O)N[C@@H](CC(C)C)C(=O)N[C@@H](CCC(N)=O)C(=O)N[C@@H](CCC(=O)O)C(=O)N[C@@H](CC(C)C)C(=O)N[C@@H](CC(C)C)C(=O)N[C@@H](CCSC)C(=O)NCC(=O)N[C@@H](CO)C(=O)N[C@@H](Cc1ccccc1)C(=O)NCC(=O)N[C@H](C(=O)N[C@H](C(=O)O)C(C)C)[C@@H](C)CC)[C@@H](C)CC | 1040 | 294 | 724 | > 55100 | 67 | 17 | 2000 | IC50 (HLA-DR DRB1*1101 (DR11)): 7980 nM; IC50 (HLA-DR DRB1*0301 (DR3)): 31800 nM; IC50 (HLA-DR DRB1*0901 (DR9); DRB1 *0901): 271 nM
NHLINTPKIMPHHII |  | 560 | 4800 | 8880 |  | 1630 |  | IC50 (HLA-DR DRB1*0802 (DR8)): 1300 nM
KEYVLDLYPEPTDLY | > 14800 | 3170 | 131 | > 55100 | 5950 |  | > 72300 | IC50 (HLA-DR DRB1*1101 (DR11)): > 59200 nM; IC50 (HLA-DR DRB1*0901 (DR9); DRB1 *0901): > 49900 nM
KCLVISQVSNSDSYK | 236 |  | 16 | > 42600 | 628 | 81 | 46400 | IC50 (HLA-DR DRB1*0802 (DR8)): 17900 nM
FPTIPLSRLFDNAM |  |  |  |  |  |  |  | IC50 (HLA-DR DRB1*0301 (DR3); read-out: DRB1 *0301): 46700 nM; IC50 (HLA-DR DRB1*0901 (DR9); read-out: DRB1 *0901): 15000 nM; IC50 (HLA-DR DRB1*0401 (DR4); read-out: DRB1 *0401): 9460 nM; IC50 (HLA-DR DRB1*0101 (DR1); read-out: DRB1 *0101): 6920 nM; IC50 (HLA-DR DRB1*0701 (DR7); read-out: DRB1 *0701): 5530 nM
GVIYIMIISKKMMRK |  | 173 | 22 | 46 | 10 | 157 |  | IC50 (HLA-DR DRB1*0802 (DR8)): 137 nM
NYELSKKAVIFTPIY |  |  | 536 |  | 713 |  | 5500 | IC50 (HLA-DR DRB1*0802 (DR8)): 141 nM
VYDFAFADLTVVYRE | > 13100 | 9450 |  |  | 173 | 10700 | 7010 | IC50 (HLA-DR DRB1*1101 (DR11)): > 18000 nM; IC50 (HLA-DR DRB1*0901 (DR9); DRB1 *0901): 155 nM
SVTWIGAAPLILSPI |  |  |  |  |  |  |  | IC50 (HLA-DR DRB1*0301 (DR3); read-out: DRB1 *0301): > 81800 nM; IC50 (HLA-DR DRB1*0901 (DR9); read-out: DRB1 *0901): 30 nM; IC50 (HLA-DR DRB1*0401 (DR4); read-out: DRB1 *0401): 3150 nM; IC50 (HLA-DR DRB1*0101 (DR1); read-out: DRB1 *0101): 4.1 nM; IC50 (HLA-DR DRB1*0701 (DR7); read-out: DRB1 *0701): 83 nM
LYYLFNQHIKKELYH | 327 |  |  |  | 27 | 1090 | 10200 | IC50 (HLA-DR DRB1*0802 (DR8)): 1770 nM
YGIIVPVLTSLFNKV |  |  |  |  |  |  |  | IC50 (HLA-DR DRB1*0802 (DR8); read-out: DRB1 *0802): 793 nM; IC50 (HLA-DR DRB1*0401 (DR4); read-out: DRB1 *0401): 2 nM; IC50 (HLA-DR DRB1*0101 (DR1); read-out: DRB1 *0101): 6 nM; IC50 (HLA-DR DRB1*0701 (DR7); read-out: DRB1 *0701): 60 nM
TLRLCVQSTHVDIRT | 932 |  | 12000 | > 22900 | 1520 | 243 | 3260 | IC50 (HLA-DR DRB1*1101 (DR11)): 17600 nM; IC50 (HLA-DR DRB1*0901 (DR9); DRB1 *0901): 6370 nM
LEDLLMGTLGIVCP |  |  |  |  |  |  |  | IC50 (HLA-DR DRB1*0901 (DR9); read-out: DRB1 *0901): 1990 nM
GGVLVNEILNHMK |  |  |  |  |  |  |  | IC50 (HLA-DR DRB1*0301 (DR3); read-out: DRB1 *0301): 700 nM; IC50 (HLA-DR DRB1*0901 (DR9); read-out: DRB1 *0901): 54400 nM; IC50 (HLA-DR DRB1*0401 (DR4); read-out: DRB1 *0401): 359 nM; IC50 (HLA-DR DRB1*0701 (DR7); read-out: DRB1 *0701): 29500 nM
MNALRRLPVICSFLV |  | 36 | 13 | 2560 | 2.1 | 5.7 |  | IC50 (HLA-DR DRB1*0802 (DR8)): 265 nM
VRTLQQLLMQTCTIV |  |  |  |  |  |  |  | IC50 (HLA-DR DRB1*0901 (DR9); read-out: DRB1 *0901): 496 nM; IC50 (HLA-DR DRB1*0401 (DR4); read-out: DRB1 *0401): 322 nM; IC50 (HLA-DR DRB1*0101 (DR1); read-out: DRB1 *0101): 36 nM; IC50 (HLA-DR DRB1*0701 (DR7); read-out: DRB1 *0701): 1820 nM
DIRILQELLMGSFGI | 5800 | 1620 |  | > 55100 | 88 | 16 | 1590 | IC50 (HLA-DR DRB1*1101 (DR11)): 19000 nM; IC50 (HLA-DR DRB1*0301 (DR3)): 3250 nM
KKNIIALLIIPPKIIA |  |  |  |  |  |  |  | IC50 (HLA-DR DRB1*0802 (DR8); read-out: DRB1 *0802): 157 nM; IC50 (HLA-DR DRB1*0101 (DR1); read-out: DRB1 *0101): 13 nM; IC50 (HLA-DR DRB1*0701 (DR7); read-out: DRB1 *0701): 495 nM
AVGLPSTPVHPIGYY |  |  |  |  |  |  |  | IC50 (HLA-DR DRB1*0802 (DR8); read-out: DRB1 *0802): 4430 nM; IC50 (HLA-DR DRB1*0401 (DR4); read-out: DRB1 *0401): 4190 nM; IC50 (HLA-DR DRB1*0101 (DR1); read-out: DRB1 *0101): 3.6 nM
